Data as given in ChEMBL document CHEMBL1201862, “PubChem BioAssay data set” (2004).
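Cells were grown in 96-well plates and exposed to each compound for 48 hours at five concentrations; endpoints were interpolated linearly between bracketing concentrations, or set to the highest concentration if not reached. The concentration for 50% growth inhibition is given as GI50.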 Activity calls are given as the source filed them. No stated cut-off is given here; in the data, active = GI50 up to about 1.1 µM and inactive = higher.

Legend:
Assay in all cases: NCI anticancer screen, dose series, 48 h
[1] = system: Malme-3M
[2] = system: SF-295
[3] = system: NCI-H460
[4] = system: M14
[5] = system: UACC-257
[6] = system: SF-539
[7] = system: OVCAR-3
[8] = system: HCT-116
[9] = system: MCF7
[10] = system: A549
[11] = system: RPMI-8226
[12] = system: EKVX
[13] = system: SW-620
[14] = system: UO-31
[15] = system: KM12
[16] = system: SF-268
[17] = system: SR
[18] = system: LOX IMVI
[19] = system: CCRF-CEM
[20] = system: IGROV-1

| Structure (SMILES) | GI50 [1] | GI50 [2] | GI50 [3] | GI50 [4] | GI50 [5] | GI50 [6] | GI50 [7] | GI50 [8] | GI50 [9] | GI50 [10] | GI50 [11] | GI50 [12] | GI50 [13] | GI50 [14] | GI50 [15] | GI50 [16] | GI50 [17] | GI50 [18] | GI50 [19] | GI50 [20] |
| --- | --- | --- | --- | --- | --- | --- | --- | --- | --- | --- | --- | --- | --- | --- | --- | --- | --- | --- | --- | --- |
| O=C1c2ccccc2-c2nnc(-c3ccc(Cl)cc3)cc21 | > 10 µM (inactive) | > 10 µM (inactive) | > 10 µM (inactive) | > 10 µM (inactive) | > 10 µM (inactive) | > 10 µM (inactive) | > 10 µM (inactive) | > 10 µM (inactive) | > 10 µM (inactive) | > 10 µM (inactive) | > 10 µM (inactive) | > 10 µM (inactive) | > 10 µM (inactive) | > 10 µM (inactive) | > 10 µM (inactive) | > 10 µM (inactive) | > 10 µM (inactive) | > 10 µM (inactive) | > 10 µM (inactive) | > 10 µM (inactive) |
| CCSC(=O)N1c2ccc(OC)cc2C=CC1C#N (stereo not given) | 0.1 µM (active) | 0.00405 µM (active) | 0.00423 µM (active) | 0.00601 µM (active) | < 0.01 µM (active) | 0.00177 µM (active) | 0.001 µM (active) | 0.000509 µM (active) | 0.00883 µM (active) | 0.00565 µM (active) | 0.00273 µM (active) | 0.392 µM (active) | 0.00356 µM (active) | < 0.01 µM (active) | 0.00449 µM (active) | 0.00113 µM (active) | 0.000843 µM (active) | 0.00424 µM (active) | 0.00313 µM (active) | 0.00373 µM (active) |
| COc1ccc(OC)c(C2CCc3nc4nc(N)nc(N)c4cc3C2)c1 (stereo not given) | 1.92 µM (inactive) | 11.7 µM (inactive) | 4.66 µM (inactive) | 1.8 µM (inactive) | 2.48 µM (inactive) | 3.01 µM (inactive) | 1.82 µM (inactive) | 1.83 µM (inactive) | 1.89 µM (inactive) | 14.7 µM (inactive) | 5.78 µM (inactive) | 13.4 µM (inactive) | 2.86 µM (inactive) | 3.25 µM (inactive) | 2.29 µM (inactive) | 2.96 µM (inactive) | 2.48 µM (inactive) | 3.12 µM (inactive) | 2.96 µM (inactive) | 10.2 µM (inactive) |
| O=C1/C(=C\c2ccccc2)c2ccccc2N1Cc1ccccc1 | 6.92 µM (inactive) | 11.4 µM (inactive) | 12.8 µM (inactive) | 9.16 µM (inactive) | 10.9 µM (inactive) | > 10 µM (inactive) | 3.99 µM (inactive) | 4.72 µM (inactive) | 3.45 µM (inactive) | 11.6 µM (inactive) | 2.74 µM (inactive) | 12.5 µM (inactive) | 9.84 µM (inactive) | 10 µM (inactive) | 6.04 µM (inactive) | 9.25 µM (inactive) | 2.04 µM (inactive) | 7.45 µM (inactive) | 3.15 µM (inactive) | 10.7 µM (inactive) |
| COC(OC)(c1ccccc1)C(Br)Br | 16.7 µM (inactive) | > 100 µM (inactive) | > 100 µM (inactive) | 18.6 µM (inactive) | > 100 µM (inactive) | > 10 µM (inactive) | 48.3 µM (inactive) | 17.9 µM (inactive) | 39 µM (inactive) | > 100 µM (inactive) | 36.5 µM (inactive) | > 100 µM (inactive) | 15.8 µM (inactive) | > 100 µM (inactive) | > 100 µM (inactive) | 42.6 µM (inactive) | 21 µM (inactive) | 28.2 µM (inactive) | 13.6 µM (inactive) | 50.8 µM (inactive) |
| NS(=O)(=O)c1ccc(NNc2c3ccccc3nc3c(C(=O)Nc4ccc(S(=O)(=O)Nc5ncccn5)cc4)cccc23)cc1 | > 25 µM (inactive) | > 25 µM (inactive) | > 25 µM (inactive) | > 25 µM (inactive) | > 25 µM (inactive) | > 25 µM (inactive) | > 25 µM (inactive) | > 25 µM (inactive) | > 25 µM (inactive) | > 25 µM (inactive) | > 25 µM (inactive) | > 25 µM (inactive) | > 25 µM (inactive) | > 25 µM (inactive) | > 25 µM (inactive) | > 25 µM (inactive) | > 25 µM (inactive) | > 25 µM (inactive) | > 25 µM (inactive) | > 25 µM (inactive) |
| CO[C@H]1C=CO[C@@]2(C)Oc3c(C)c(O)c4c(O)c(c(CN5CCN(C)CC5)c(O)c4c3C2=O)NC(=O)/C(C)=C\C=C[C@H](C)[C@H](O)C(C)[C@@H](O)C(C)[C@H](OC(C)=O)[C@@H]1C (stereo not given in full) | 40.6 µM (inactive) | > 100 µM (inactive) | 39.6 µM (inactive) | 24.2 µM (inactive) | 21 µM (inactive) | 24.8 µM (inactive) | 2.88 µM (inactive) | 13.4 µM (inactive) | 11.1 µM (inactive) | 39.7 µM (inactive) | 4.62 µM (inactive) | 68.5 µM (inactive) | 13.1 µM (inactive) | 33.7 µM (inactive) | 45.6 µM (inactive) | 50.2 µM (inactive) | 6.62 µM (inactive) | 14.3 µM (inactive) | 4.39 µM (inactive) | 33.8 µM (inactive) |
| CCOCC(=O)N[C@H]1CCc2cc(OC(=O)COCC)c(OC)c(OC)c2-c2ccc(SC)c(=O)cc21 | 0.0138 µM (active) | 0.0157 µM (active) | 0.0327 µM (active) | 0.0256 µM (active) | 0.00902 µM (active) | 0.0172 µM (active) | 0.01 µM (active) | 0.0175 µM (active) | 0.00686 µM (active) | 0.0355 µM (active) | 0.0299 µM (active) | 0.0571 µM (active) | 0.0171 µM (active) | 0.914 µM (active) | 0.00708 µM (active) | 0.0384 µM (active) | 0.0159 µM (active) | 0.0303 µM (active) | 0.0231 µM (active) | 0.0324 µM (active) |
| Cn1c(SCc2c[nH]c3ccccc23)nnc1-c1ccc(Cl)cc1Cl | 18.9 µM (inactive) | 8.3 µM (inactive) | 12.5 µM (inactive) | 11.4 µM (inactive) | 19.9 µM (inactive) | 3.14 µM (inactive) | 12.1 µM (inactive) | 23.4 µM (inactive) | 22.7 µM (inactive) | 17.5 µM (inactive) | 13.1 µM (inactive) | 15.3 µM (inactive) | 19.5 µM (inactive) | 18 µM (inactive) | 9.82 µM (inactive) | 23.9 µM (inactive) | 4.23 µM (inactive) | 5.18 µM (inactive) | 12.8 µM (inactive) | 17.4 µM (inactive) |
| CN1CCOC1(C)CO (stereo not given) | > 100 µM (inactive) | > 100 µM (inactive) | > 100 µM (inactive) | > 100 µM (inactive) | > 100 µM (inactive) | > 100 µM (inactive) | > 100 µM (inactive) | > 100 µM (inactive) | > 100 µM (inactive) | > 100 µM (inactive) | > 100 µM (inactive) | > 100 µM (inactive) | > 100 µM (inactive) | > 100 µM (inactive) | > 100 µM (inactive) | > 100 µM (inactive) | > 100 µM (inactive) | > 100 µM (inactive) | > 100 µM (inactive) | > 100 µM (inactive) |
| CN(CCCCCl)P(=O)(OCc1ccc([N+](=O)[O-])o1)OC[C@H]1O[C@@H](n2cc(F)c(=O)[nH]c2=O)C[C@@H]1O (stereo not given in full) | 3.25 µM (inactive) | 0.0914 µM (active) | < 0.01 µM (active) | 1.04 µM (active) | 30.8 µM (inactive) | < 0.01 µM (active) | 0.52 µM (active) | 0.995 µM (active) | < 0.0227 µM (active) | 0.0301 µM (active) | 1.27 µM (inactive) | 35.4 µM (inactive) | 17.3 µM (inactive) | 0.355 µM (active) | 12.4 µM (inactive) | 0.0284 µM (active) | 0.0702 µM (active) | 0.07 µM (active) | 0.173 µM (active) | 1.58 µM (inactive) |
